The assay addresses T1, triosephosphate isomerase (TPI) (Saccharomyces cerevisiae, UniProt P00942).
T1 construct: gene TPI1; commercial Triosephosphate isomerase (from S. cerevisiae, Sigma)
T1 sequence (P00942 2-248): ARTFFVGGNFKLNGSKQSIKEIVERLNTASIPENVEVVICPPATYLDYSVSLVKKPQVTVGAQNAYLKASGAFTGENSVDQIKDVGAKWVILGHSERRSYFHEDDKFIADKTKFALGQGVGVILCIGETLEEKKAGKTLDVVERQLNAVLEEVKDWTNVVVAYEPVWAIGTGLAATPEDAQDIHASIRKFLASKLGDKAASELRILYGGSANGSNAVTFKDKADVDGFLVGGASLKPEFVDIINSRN
The experiment in a line: coupled alpha-glycerophosphate dehydrogenase/NADH assay (A340) with purified TPI; also in vitro methylglyoxal release by TPI (diaminobenzene adduct). Format: biochemical.

This is an account of results in article PMC6433957, “Phenylpyrrole fungicides act on triosephosphate isomerase to induce methylglyoxal stress and alter hybrid histidine kinase activity” (Scientific Reports, 2019).

On to `N#Cc1c[nH]cc1-c1cccc2c1OC(F)(F)O2` [fludioxonil], for which the IC50 (commonly the concentration needed to halve the response being measured) was about 403 µM.
